{
  "source": "patent US12502480B1",
  "about": "“System and method for administration of a substance” (Abusarah, Inc., priority 2025, dated 2025)",
  "key": {"[1]": {"experiment": "clinical", "details": "human, in vivo"}, "[2]": {"details": "cited from earlier work"}, "[3]": {"details": "cited from earlier work; for Cmax / Tmax: arterial"}, "[4]": {"details": "cited from earlier work; for Cmax / AUC0-24 h: Caucasians 18-60 years of age; for Cmax: in ng/mL; for AUC0-24 h: in ng·h/mL"}, "[5]": {"details": "cited from earlier work", "remark": "listed apart in the source"}, "[6]": {"experiment": "Pharmacokinetics of inhaled (nebulized) esketamine versus IV infusion, arterial concentrations", "details": "comparison across Examples 3 and 4, not within the same individuals"}, "[7]": {"details": "inhalation of 0.35 mg/kg esketamine"}, "[8]": {"details": "inhalation of 0.5 mg/kg esketamine"}, "[9]": {"details": "inhalation of 0.7 mg/kg esketamine"}, "[10]": {"details": "IN administration, based upon the models"}},
  "note": "Read-outs that look alike come from different tables or passages of the source.",
  "data": [
    {"smiles": "C=CCN1CC[C@]23c4c5ccc(O)c4O[C@H]2C(=O)CC[C@@]3(O)[C@H]1C5", "note": "[naloxone]", "values": [
      {"measurement": "Cmax", "setting": "[1]; 1 mg", "result": 2.1, "unit": "ng/mL"},
      {"measurement": "Cmax", "setting": "[1]; 2 mg", "result": 4.3, "unit": "ng/mL"},
      {"measurement": "Cmax", "setting": "[1]; 4 mg", "result": 10.1, "unit": "ng/mL"},
      {"measurement": "half-life", "setting": "[1]; iv, 0.4 mg", "result": 3.4, "unit": "min"},
      {"measurement": "K (elimination rate constant), best-fit value", "setting": "0.4 mg IV, single elimination model", "result": 12.16, "unit": "h⁻¹"},
      {"measurement": "kabs (absorption rate constant)", "setting": "IN doses of 1, 2 and 4 mg, best fit of one-phase association and dissociation model", "result": 4.47, "unit": "h⁻¹"},
      {"measurement": "elimination rate-constant, mean value", "setting": "IN doses of 1, 2 and 4 mg, model fit", "result": 0.82, "unit": "h⁻¹"},
      {"measurement": "bioavailability", "setting": "[2]; IM/SC dose", "result": 98.3, "unit": "%"},
      {"measurement": "bioavailability", "setting": "[2]; nasal spray", "result": "40-55%"}
    ]},
    {"smiles": "N[C@]1(c2ccccc2Cl)CCCCC1=O", "note": "[noresketamine]", "values": [
      {"measurement": "Cmax", "setting": "[3]; [7]", "result": 52, "unit": "ng/mL"},
      {"measurement": "Tmax", "setting": "[3]; [7]", "result": 63, "unit": "min"},
      {"measurement": "Cmax", "setting": "[3]; [8]", "result": 97, "unit": "ng/mL"},
      {"measurement": "Tmax", "setting": "[3]; [8]", "result": 48, "unit": "min"},
      {"measurement": "Cmax", "setting": "[3]; [9]", "result": 153, "unit": "ng/mL"},
      {"measurement": "Tmax", "setting": "[3]; [9]", "result": 41, "unit": "min"},
      {"measurement": "Cmax", "setting": "[4]; 28 mg IN esketamine", "result": 59.1},
      {"measurement": "AUC0-24 h", "setting": "[4]; 28 mg IN esketamine", "result": 274.4},
      {"measurement": "Cmax", "setting": "[4]; 56 mg IN esketamine", "result": 119.7},
      {"measurement": "AUC0-24 h", "setting": "[4]; 56 mg IN esketamine", "result": 516.3},
      {"measurement": "Cmax", "setting": "[4]; 84 mg IN esketamine", "result": 180},
      {"measurement": "AUC0-24 h", "setting": "[4]; 84 mg IN esketamine", "result": 758}
    ]},
    {"smiles": "Cc1cccc([C@H](C)c2cnc[nH]2)c1C", "note": "[dexmedetomidine]", "values": [
      {"measurement": "disposition, intravenous versus intranasal administration", "setting": "[5]; 2-compartment disposition model", "result": "similar"},
      {"measurement": "intranasal bioavailability", "setting": "[5]; both atomization and drops", "result": "~40", "unit": "%"},
      {"measurement": "uptake kinetics of atomized and intranasal relative to IV", "setting": "[5]; in vivo, iv", "result": "slower update kinetics"},
      {"measurement": "absorption rate constant (kabs)", "setting": "[5]; intranasal by atomizer", "result": 0.857, "unit": "h⁻¹"},
      {"measurement": "mean transit time (delay in uptake)", "setting": "[5]; intranasal by atomizer", "result": 0.176, "unit": "h"},
      {"measurement": "absorption rate constant (kabs)", "setting": "[5]; intranasal by drops", "result": 0.725, "unit": "h⁻¹"},
      {"measurement": "mean transit time (delay in uptake)", "setting": "[5]; intranasal by drops", "result": 0.163, "unit": "h"}
    ]},
    {"smiles": "CN[C@]1(c2ccccc2Cl)CCCCC1=O", "note": "[esketamine, S-ketamine]", "values": [
      {"measurement": "fraction of dose directly absorbed through the alveoli", "setting": "[3]; INH administration", "result": 70, "unit": "%"},
      {"measurement": "fraction of dose travelling via a slower pathway (lung, GI or oropharyngeal absorption)", "setting": "[3]; INH administration", "result": 30, "unit": "%"},
      {"measurement": "rate constant of the slow transit", "setting": "[3]; INH administration", "result": 0.05, "unit": "min⁻¹"},
      {"measurement": "half-life of the slow transit", "setting": "[3]; INH administration, from rate constant", "result": 13, "unit": "min"},
      {"measurement": "dose-dependent reduction in bioavailability", "setting": "[3]; INH, at the higher doses", "result": 20, "unit": "%"},
      {"measurement": "modeled F value (extent of bioavailability)", "setting": "[3]; across INH doses, multicompartment model", "result": 0.70},
      {"measurement": "bioavailability", "setting": "[3]; following INH administration", "result": 70, "unit": "%"},
      {"measurement": "fraction metabolized to noresketamine", "setting": "[3]; in vivo", "result": 78, "unit": "%"},
      {"measurement": "Cmax", "setting": "[3]; [7]", "result": 128, "unit": "ng/mL"},
      {"measurement": "Tmax", "setting": "[3]; [7]", "result": 22, "unit": "min"},
      {"measurement": "Cmax", "setting": "[3]; [8]", "result": 180, "unit": "ng/mL"},
      {"measurement": "Tmax", "setting": "[3]; [8]", "result": 15, "unit": "min"},
      {"measurement": "Cmax", "setting": "[3]; [9]", "result": 227, "unit": "ng/mL"},
      {"measurement": "Tmax", "setting": "[3]; [9]", "result": 25, "unit": "min"},
      {"measurement": "Cmax", "setting": "[4]; 28 mg IN esketamine", "result": 43.8},
      {"measurement": "AUC0-24 h", "setting": "[4]; 28 mg IN esketamine", "result": 147.3},
      {"measurement": "Cmax", "setting": "[4]; 56 mg IN esketamine", "result": 72.5},
      {"measurement": "AUC0-24 h", "setting": "[4]; 56 mg IN esketamine", "result": 254.7},
      {"measurement": "Cmax", "setting": "[4]; 84 mg IN esketamine", "result": 101},
      {"measurement": "AUC0-24 h", "setting": "[4]; 84 mg IN esketamine", "result": 362.2},
      {"measurement": "fraction of dose absorbed through the nasal cavity", "setting": "[4]; [10]", "result": "~54", "unit": "%"},
      {"measurement": "fraction of dose swallowed", "setting": "[4]; [10]", "result": 46, "unit": "%"},
      {"measurement": "swallowed percentage reaching the systemic circulation after first-pass metabolism", "setting": "[4]; IN administration", "result": 18.6, "unit": "%"},
      {"measurement": "mean absorption time", "setting": "[4]; absorption through the gut", "result": 2.02, "unit": "h"},
      {"measurement": "mean absorption time", "setting": "[4]; absorption through the nasal mucosa", "result": 0.333, "unit": "h"},
      {"measurement": "absolute bioavailability", "setting": "[4]; intranasal", "result": "~50", "unit": "%"},
      {"measurement": "absorption following INH versus IN", "setting": "[6]", "result": "more rapid"}
    ]}
  ]
}
